In one test the target is T1, human orexin-2 receptor (Homo sapiens, UniProt O43614).
T1 construct: expressed in transfected cells; host or cells: CHO (Chinese hamster ovary) cells, kept under G418
T1 sequence (O43614 1-444): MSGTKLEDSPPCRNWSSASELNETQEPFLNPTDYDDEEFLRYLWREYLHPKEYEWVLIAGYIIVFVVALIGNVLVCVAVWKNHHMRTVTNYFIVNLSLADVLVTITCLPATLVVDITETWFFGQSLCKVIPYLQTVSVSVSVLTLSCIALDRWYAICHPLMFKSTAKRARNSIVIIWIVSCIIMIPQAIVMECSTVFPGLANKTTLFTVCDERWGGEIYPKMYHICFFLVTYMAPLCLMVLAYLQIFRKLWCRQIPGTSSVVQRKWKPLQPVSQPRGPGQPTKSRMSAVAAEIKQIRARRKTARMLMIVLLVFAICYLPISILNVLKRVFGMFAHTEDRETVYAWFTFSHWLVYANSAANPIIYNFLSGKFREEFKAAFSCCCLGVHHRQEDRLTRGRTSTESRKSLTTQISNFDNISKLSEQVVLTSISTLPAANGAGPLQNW
The test can be described thus: FLIPR intracellular calcium assay, orexin receptor antagonistic activity (OX2). It is filed as cell-based. Conditions: CHO cells expressing human orexin-2 receptor; 3 nM orexin-A; normalized to on-plate reference; *n = geometric mean from n values. The protocol:
(§1) The orexin receptor antagonistic activity of the compounds of formula (I) is determined in accordance with the following experimental method.
(§2) Chinese hamster ovary (CHO) cells expressing the human orexin-1 receptor and the human orexin-2 receptor, respectively, are grown in culture medium (Ham F-12 with L-Glutamine) containing 300 μg/ml G418, 100 U/ml penicillin, 100 μg/ml streptomycin and 10% heat inactivated fetal calf serum (FCS). The cells are seeded at 20′000 cells/well into 384-well black clear bottom sterile plates (Greiner). The seeded plates are incubated overnight at 37° C. in 5% CO2.
(§3) Human orexin-A as an agonist is prepared as 1 mM stock solution in MeOH:water (1:1), diluted in HBSS containing 0.1% bovine serum albumin (BSA), NaHCO3: 0.375 g/l and 20 mM HEPES for use in the assay at a final concentration of 3 nM.
(§4) Antagonists are prepared as 10 mM stock solution in DMSO, then diluted in 384-well plates using DMSO followed by a transfer of the dilutions into in HBSS containing 0.1% bovine serum albumin (BSA), NaHCO3: 0.375 g/l and 20 mM HEPES. On the day of the assay, 50 μl of staining buffer (HBSS containing 1% FCS, 20 mM HEPES, NaHCO3: 0.375 g/l, 5 mM probenecid (Sigma) and 3 μM of the fluorescent calcium indicator fluo-4 AM (1 mM stock solution in DMSO, containing 10% pluronic) is added to each well. The 384-well cell-plates are incubated for 50 min at 37° C. in 5% CO2 followed by equilibration at rt for 30-120 min before measurement.
(§5) Within the Fluorescent Imaging Plate Reader (FLIPR Tetra, Molecular Devices), antagonists are added to the plate in a volume of 10 μl/well, incubated for 10 min and finally 10 μl/well of agonist is added. Fluorescence is measured for each well at 1 second intervals, and the height of each fluorescence peak is compared to the height of the fluorescence peak induced by 3 nM orexin-A with vehicle in place of antagonist. For each antagonist, the IC50 value (the concentration of compound needed to inhibit 50% of the agonistic response) is determined and normalized using the obtained IC50 value of a on-plate reference compound. Optimized conditions were achieved by adjustment of pipetting speed and cell splitting regime. The calculated IC50 values of the compounds may fluctuate depending on the daily cellular assay performance. Fluctuations of this kind are known to those skilled in the art.

The next test deals with T2, human orexin-1 receptor (Homo sapiens, UniProt O43613).
T2 construct: expressed in transfected cells; host or cells: CHO (Chinese hamster ovary) cells, kept under G418
T2 sequence (O43613 1-425): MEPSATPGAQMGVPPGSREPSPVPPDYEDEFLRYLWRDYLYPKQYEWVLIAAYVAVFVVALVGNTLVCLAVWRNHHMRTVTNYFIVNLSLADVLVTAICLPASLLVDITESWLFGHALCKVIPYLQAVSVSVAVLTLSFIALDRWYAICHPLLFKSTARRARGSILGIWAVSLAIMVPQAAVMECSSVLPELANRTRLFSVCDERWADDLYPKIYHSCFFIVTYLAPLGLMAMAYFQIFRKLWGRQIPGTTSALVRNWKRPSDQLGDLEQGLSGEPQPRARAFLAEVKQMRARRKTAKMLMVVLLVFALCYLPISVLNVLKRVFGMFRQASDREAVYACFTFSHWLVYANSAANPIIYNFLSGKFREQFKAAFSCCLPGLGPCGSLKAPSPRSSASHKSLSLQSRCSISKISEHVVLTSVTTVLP
In words: FLIPR intracellular calcium assay, orexin receptor antagonistic activity (OX1). It is filed as cell-based. Conditions: CHO cells expressing human orexin-1 receptor; 3 nM orexin-A; normalized to on-plate reference; *n = geometric mean from n values. The protocol:
as §1, §2, §3, §4, §5

For the molecule `COc1cccc(OC)c1C1SCC(=O)N1Cc1ccc2ccccc2c1` (centres unmarked) [Example 8, 2-(2,6-Dimethoxy-phenyl)-3-naphthalen-2-ylmethyl-thiazolidin-4-one], the IC50 (commonly the concentration at which inhibition is half-maximal) turned out to be 23 nM on human orexin-2 receptor and 83 nM on human orexin-1 receptor.
For `COc1cc(C2SC(C)C(=O)N2Cc2nc3ccccc3[nH]2)ccc1OCc1ccccc1` (centres unmarked) [Example 265, 3-(1H-Benzoimidazol-2-ylmethyl)-2-(4-benzyloxy-3-methoxy-phenyl)-5-methyl-thiazolidin-4-one] the same measures were 533 nM and 2630 nM.
For `COc1cc(F)cc(OC)c1C1SC(C)C(=O)N1Cc1ccc(OC(F)(F)F)cc1` (centres unmarked) [Example 36, 2-(4-Fluoro-2,6-dimethoxy-phenyl)-5-methyl-3-(4-trifluoromethoxy-benzyl)-thiazolidin-4-one] the same measures were 33 nM and 171 nM.
Take `COc1ccc(Oc2ccc(CN3C(=O)CSC3c3c(OC)cccc3OC)cc2)nc1` (centres unmarked) [Example 286, 2-(2,6-Dimethoxy-phenyl)-3-[4-(5-methoxy-pyridin-2-yloxy)-benzyl]-thiazolidin-4-one]: the IC50 came out at 52 nM at human orexin-2 receptor and 553 nM at human orexin-1 receptor.
On to `COc1cccc(OC)c1C1SCC(=O)N1Cc1ccc(Oc2cnccn2)cc1` (centres unmarked) [Example 279, 2-(2,6-Dimethoxy-phenyl)-3-[4-(pyrazin-2-yloxy)-benzyl]-thiazolidin-4-one], for which the IC50 at human orexin-2 receptor worked out at 32 nM; on human orexin-1 receptor it was 1420 nM.
For `COc1cccc(OC)c1C1SC(C)C(=O)N1Cc1ccc(OC(F)(F)F)cc1` (centres unmarked) [Example 17, 2-(2,6-Dimethoxy-phenyl)-5-methyl-3-(4-trifluoromethoxy-benzyl)-thiazolidin-4-one] the same measures were 15 nM and 363 nM.
For `COc1cccc(OC)c1C1SCC(=O)N1Cc1ccc(Oc2cccnc2)cc1` (centres unmarked) [Example 278, 2-(2,6-Dimethoxy-phenyl)-3-[4-(pyridin-3-yloxy)-benzyl]-thiazolidin-4-one] the same measures were 10 nM and 1030 nM.
For `CCOc1ccc(CN2C(=O)CSC2c2c(OC)ccc3c2OCCO3)cc1` (centres unmarked) [Example 9, 3-(4-Ethoxy-benzyl)-2-(6-methoxy-2,3-dihydro-benzo[1,4]dioxin-5-yl)-thiazolidin-4-one] the same measures were 39 nM and 326 nM.
For `CCOc1cccc(OC)c1C1SCC(=O)N1Cc1ccc(OC(F)(F)F)cc1` (centres unmarked) [Example 16, 2-(2-Ethoxy-6-methoxy-phenyl)-3-(4-trifluoromethoxy-benzyl)-thiazolidin-4-one], the IC50 at human orexin-2 receptor amounted to 24 nM; at human orexin-1 receptor, 454 nM.
For `CCOc1ccccc1C1SCCC(=O)N1Cc1ccccc1OC(F)F` (centres unmarked) [Example 40, 3-(2-Difluoromethoxy-benzyl)-2-(2-ethoxy-phenyl)-[1,3]thiazinan-4-one] the same measures were 68 nM and 1310 nM.
For `COc1ccc(CN2C(=O)CSC2c2c(OC)cccc2OC)cc1` (centres unmarked) [Example 1, 2-(2,6-Dimethoxy-phenyl)-3-(4-methoxy-benzyl)-thiazolidin-4-one] the same measures were 104 nM and 309 nM.
For `COc1cccc(OC)c1C1SCC(=O)N1Cc1ccc(OCC(F)(F)F)cc1` (centres unmarked) [Example 18, 2-(2,6-Dimethoxy-phenyl)-3-[4-(2,2,2-trifluoro-ethoxy)-benzyl]-thiazolidin-4-one] the same measures were 10 nM and 323 nM.
Consider `COc1cc(C)cc(OC)c1C1SCC(=O)N1Cc1ccc(OC(F)(F)F)cc1` (centres unmarked) [Example 34, 2-(2,6-Dimethoxy-4-methyl-phenyl)-3-(4-trifluoromethoxy-benzyl)-thiazolidin-4-one], for which the IC50 at human orexin-2 receptor amounted to 28 nM; on human orexin-1 receptor it was 107 nM.
For `COc1cccc(OC)c1C1SCC(=O)N1Cc1ccc(OC(C)C)cc1` (centres unmarked) [Example 5, 2-(2,6-Dimethoxy-phenyl)-3-(4-isopropoxy-benzyl)-thiazolidin-4-one] the same measures were 16 nM and 169 nM.
For `CCOc1ccc(CN2C(=O)C(C)SC2c2c(OC)cccc2OC)cc1` (centres unmarked) [Example 13, 2-(2,6-Dimethoxy-phenyl)-3-(4-ethoxy-benzyl)-5-methyl-thiazolidin-4-one] the same measures were 43 nM and 244 nM.
For `COc1cccc(OC)c1C1SCC(=O)N1Cc1ccc(Oc2cc(C)ccn2)cc1` (centres unmarked) [Example 284, 2-(2,6-Dimethoxy-phenyl)-3-[4-(4-methyl-pyridin-2-yloxy)-benzyl]-thiazolidin-4-one] the same measures were 7 nM and 344 nM.
For the molecule `COc1cccc(OC)c1C1SCC(=O)N1Cc1ccc(Oc2ccccc2)cc1` (centres unmarked) [Example 7, 2-(2,6-Dimethoxy-phenyl)-3-(4-phenoxy-benzyl)-thiazolidin-4-one], the IC50 on human orexin-2 receptor was determined as 13 nM; at human orexin-1 receptor, 244 nM.
For `CCOc1ccc(CN2C(=O)CSC2c2c(OC)ccc3cccnc23)cc1` (centres unmarked) [Example 21, 3-(4-Ethoxy-benzyl)-2-(7-methoxy-quinolin-8-yl)-thiazolidin-4-one] the same measures were 60 nM and 1450 nM.
`COc1cccc(OC)c1C1SCC(=O)N1Cc1ccc(OC(C)(C)C)cc1` (centres unmarked) [Example 3, 3-(4-tert-Butoxy-benzyl)-2-(2,6-dimethoxy-phenyl)-thiazolidin-4-one]: the IC50 was 120 nM at human orexin-2 receptor and 1420 nM on human orexin-1 receptor.
For `CCOc1ccc(CN2C(=O)CSC2c2c(OC)ccc3nc(C)oc23)cc1` (centres unmarked) [Example 20, 3-(4-Ethoxy-benzyl)-2-(6-methoxy-2-methyl-benzooxazol-7-yl)-thiazolidin-4-one] the same measures were 342 nM and 1560 nM.
For `COc1ccc2cc(CN3C(=O)C(C)SC3c3c(OC)cccc3OC)ccc2c1` (centres unmarked) [Example 31, 2-(2,6-Dimethoxy-phenyl)-3-(6-methoxy-naphthalen-2-ylmethyl)-5-methyl-thiazolidin-4-one] the same measures were 30 nM and 11 nM.
For “2-[2-(2-Hydroxy-ethoxy)-6-methoxy-phenyl]-3-(4-trifluoromethoxy-benzyl)-thiazolidin-4-one [Example 268]” the same measures were 45 nM and 1840 nM.
Regarding `COc1cccc(OC)c1C1SCC(=O)N1Cc1cccc(OC(F)(F)F)c1` (centres unmarked) [Example 119, 2-(2,6-Dimethoxy-phenyl)-3-(3-trifluoromethoxy-benzyl)-thiazolidin-4-one], the IC50 amounted to 61 nM on human orexin-2 receptor and 355 nM at human orexin-1 receptor.
For `CCOc1ccc(CN2C(=O)CSC2c2c(OC)cccc2OCC)cc1` (centres unmarked) [Example 15, 3-(4-Ethoxy-benzyl)-2-(2-ethoxy-6-methoxy-phenyl)-thiazolidin-4-one] the same measures were 48 nM and 853 nM.
For `COc1cccc(OC)c1C1SC(C)(C)C(=O)N1Cc1ccc2ccccc2c1` (centres unmarked) [Example 176, 2-(2,6-Dimethoxy-phenyl)-5,5-dimethyl-3-naphthalen-2-ylmethyl-thiazolidin-4-one] the same measures were 295 nM and 20 nM.

These data come from patent US20120088759A1, “THIAZOLIDIN-4-ONE AND [1,3]-THIAZINAN-4-ONE COMPOUNDS AS OREXIN RECEPTOR ANTAGONISTS” (priority 2009, published 2012).
